Laboratory results: ChEMBL document CHEMBL1671704, “Defining the role of mutations in Plasmodium vivax dihydrofolate reductase-thymidylate synthase gene using an episomal Plasmodium falciparum transfection system” (Antimicrob Agents Chemother, 2010)

Experiments:
Plasmodium falciparum [1] = test: Antimalarial activity against Plasmodium falciparum D6 infected in RBCs assessed as inhibition of [3H]hypoxanthine incorporation after 72 hrs; type: functional, organism-based
Plasmodium falciparum [2] = test: Antimalarial activity against Plasmodium falciparum TM91c235 harboring DHFR F57L, S58R, T61M, S117T mutant infected in RBCs assessed as inhibition of [3H]hypoxanthine incorporation after 72 hrs; type: functional, organism-based
Plasmodium falciparum [3] = test: Antimalarial activity against Plasmodium falciparum D6 harboring Plasmodium vivax wild type DHFR infected in RBCs assessed as inhibition of [3H]hypoxanthine incorporation after 72 hrs; type: functional, organism-based
Plasmodium falciparum [4] = test: Antimalarial activity against Plasmodium falciparum D6 harboring Plasmodium vivax DHFR S117N mutant infected in RBCs assessed as inhibition of [3H]hypoxanthine incorporation after 72 hrs; type: functional, organism-based
Plasmodium falciparum [5] = test: Antimalarial activity against Plasmodium falciparum D6 harboring Plasmodium vivax DHFR F57L and S117N mutant infected in RBCs assessed as inhibition of [3H]hypoxanthine incorporation after 72 hrs; type: functional, organism-based
Plasmodium falciparum [6] = test: Antimalarial activity against Plasmodium falciparum D6 harboring Plasmodium vivax DHFR S58R and S117N mutant infected in RBCs assessed as inhibition of [3H]hypoxanthine incorporation after 72 hrs; type: functional, organism-based
Plasmodium falciparum [7] = test: Antimalarial activity against Plasmodium falciparum D6 harboring Plasmodium vivax DHFR S58R, T61M and S117N mutant infected in RBCs assessed as inhibition of [3H]hypoxanthine incorporation after 72 hrs; type: functional, organism-based
Plasmodium falciparum [8] = test: Antimalarial activity against Plasmodium falciparum D6 harboring Plasmodium vivax DHFR F57L, S58R, T61M, S117T mutant infected in RBCs assessed as inhibition of [3H]hypoxanthine incorporation after 72 hrs; type: functional, organism-based
Plasmodium falciparum [9] = test: Ratio of IC50 for Plasmodium falciparum D6 harboring Plasmodium vivax DHFR S117N mutant to IC50 for Plasmodium falciparum D6 harboring Plasmodium vivax wild type DHFR; type: functional
Plasmodium falciparum [10] = test: Ratio of IC50 for Plasmodium falciparum D6 harboring Plasmodium vivax DHFR F57L and S117N mutant to IC50 for Plasmodium falciparum D6 harboring Plasmodium vivax wild type DHFR; type: functional
Plasmodium falciparum [11] = test: Ratio of IC50 for Plasmodium falciparum D6 harboring Plasmodium vivax DHFR S58R and S117N mutant to IC50 for Plasmodium falciparum D6 harboring Plasmodium vivax wild type DHFR; type: functional
Plasmodium falciparum [12] = test: Ratio of IC50 for Plasmodium falciparum D6 harboring Plasmodium vivax DHFR S58R, T61M and S117N mutant to IC50 for Plasmodium falciparum D6 harboring Plasmodium vivax wild type DHFR; type: functional
Plasmodium falciparum [13] = test: Ratio of IC50 for Plasmodium falciparum D6 harboring Plasmodium vivax DHFR F57L, S58R, T61M, S117T mutant to IC50 for Plasmodium falciparum D6 harboring Plasmodium vivax wild type DHFR; type: functional
Plasmodium falciparum [14] = test: Ratio of IC50 for Plasmodium falciparum TM91c235 harboring DHFR F57L, S58R, T61M, S117T mutant to IC50 for Plasmodium falciparum D6; type: functional

| Structure (SMILES) | IC50 (Plasmodium falciparum [1]) [nM] | IC50 (Plasmodium falciparum [2]) [nM] | IC50 (Plasmodium falciparum [3]) [nM] | IC50 (Plasmodium falciparum [4]) [nM] | IC50 (Plasmodium falciparum [5]) [nM] | IC50 (Plasmodium falciparum [6]) [nM] | IC50 (Plasmodium falciparum [7]) [nM] | IC50 (Plasmodium falciparum [8]) [nM] | Ratio IC50 (Plasmodium falciparum [9]) | Ratio IC50 (Plasmodium falciparum [10]) | Ratio IC50 (Plasmodium falciparum [11]) | Ratio IC50 (Plasmodium falciparum [12]) | Ratio IC50 (Plasmodium falciparum [13]) | Ratio IC50 (Plasmodium falciparum [14]) |
| --- | --- | --- | --- | --- | --- | --- | --- | --- | --- | --- | --- | --- | --- | --- |
| CC1(C)N=C(N)N=C(N)N1OCc1ccc(Cl)c(Cl)c1 [CLOCIGUANIL] | 0.021 | 3.16 | 0.022 | 0.067 | 0.219 | 0.582 | 0.073 | 56.4 | 6 | 10 | 26 | 3 | 2565 | 144 |
| CC1(C)N=C(N)N=C(N)N1OCCCOc1cc(Cl)c(Cl)cc1Cl | 0.166 | 0.339 | 0.067 | 0.427 | 1.5 | 0.69 | 0.105 | 2.93 | 6 | 22 | 10 | 2 | 44 | 5 |
| CCc1nc(N)nc(N)c1-c1ccc(Cl)cc1 [PYRIMETHAMINE] | 0.028 | 143 | 0.055 | – | 3.66 | 6.26 | 2.81 | 467 | – | – | – | – | – | – |
| CC1(C)N=C(N)N=C(N)N1c1ccc(Cl)cc1 [CYCLOGUANIL] | 0.118 | 116 | 0.429 | 0.81 | 2.77 | 1.7 | 0.587 | 320 | 2 | 6 | 4 | 1 | 746 | 50 |
